Measured values from paper PMC6377692 (EJNMMI Research, 2019).
Where “and” joins values, the source holds several entries; their conditions need not be identical. Identical values can stand only once. Bridge positions count the residues as written; N and C are the ends. Square brackets hold non-standard residues; d marks the D form. Peptide text beside a SMILES is read from it. * marks the point of attachment. DO3A(CH2CH2SO2CH2CH2) = O=C(O)CN1CCN(CCS(=O)(=O)CC*)CCN(CC(=O)O)CCN(CC(=O)O)CC1; Ala(4-thiazolyl) = N[C@@H](Cc1cscn1)C(=O)O

Legend:
[1] = tested on: GCGR in NHP liver sections; assay: in vitro autoradiography, liver sections; type: binding, cynomolgus monkey (NHP)
Experimental: (§1) Liver and pancreas tissues were collected post-mortem from cynomolgus monkeys (NHP) and Sprague Dawley rats. The use of animal tissues collected post-mortem was approved by the Animal Research Ethical Committee of the Uppsala Region and was performed according to the Uppsala university guidelines on animal experimentation (UFV 2007/724).
(§2) Sections were added in duplicates in each individual assay, and each experiment was repeated at least three times with different batches of radioligand, except for rat sections that were only performed in one assay.
(§3) After incubation, the sections were washed three times in 150 mL PBS. Sections were carefully dried at 37 °C and then exposed against a digital phosphorimager plate overnight together with a 10-μl droplet of radioactive reference (cross-calibrated against a gamma counter) on an absorbent paper attached to an object glass. The phosphor imager plates were scanned using a Cyclone Plus Phosphor imager (Perkin Elmer) at 600 dpi, and the resulting autoradiograms analyzed by ImageJ software (NIH, Bethesda). Pixel values in counts/mm^2 were converted to Bq/mm^2 by the included reference. Bq/mm^2 was further converted to fmol/mm^2 by the known specific radioactivity (fmol/Bq) of each batch of radiopharmaceutical.

[2] = in vitro autoradiography, pancreas sections; type: binding; conditions: human pancreas, 5–10 nM tracer, n = 3
Experimental: Biopsies from donor human liver and pancreas were obtained from Uppsala Biobank (sample collection 827), and their use was approved by local ethical review board (EPN 2015/401).
as §2, §3

[3] = data not shown
[4] = in vitro autoradiography, pancreas sections; type: binding, cynomolgus monkey (NHP); conditions: NHP pancreas, 5–10 nM tracer
Experimental: as §1, §2, §3

[5] = target: T1, GCGR in rat liver sections (Rattus norvegicus, UniProt P30082); assay: in vitro autoradiography, liver sections; type: binding, Sprague Dawley rat
T1 construct: from tissue; host or cells: frozen Sprague Dawley rat liver sections
T1 sequence (P30082 27-485): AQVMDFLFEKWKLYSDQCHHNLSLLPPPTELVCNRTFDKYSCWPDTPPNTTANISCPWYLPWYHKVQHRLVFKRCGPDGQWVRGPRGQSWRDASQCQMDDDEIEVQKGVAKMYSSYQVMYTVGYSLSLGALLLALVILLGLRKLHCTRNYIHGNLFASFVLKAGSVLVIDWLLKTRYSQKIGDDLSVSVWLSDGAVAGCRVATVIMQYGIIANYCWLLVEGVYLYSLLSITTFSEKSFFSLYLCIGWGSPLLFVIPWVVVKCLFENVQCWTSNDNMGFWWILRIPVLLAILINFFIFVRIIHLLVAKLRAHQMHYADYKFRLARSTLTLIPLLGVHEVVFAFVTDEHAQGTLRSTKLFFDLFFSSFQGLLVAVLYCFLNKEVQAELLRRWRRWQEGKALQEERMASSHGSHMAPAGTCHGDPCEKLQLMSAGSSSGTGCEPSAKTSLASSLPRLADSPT
Experimental: as §1, §2, §3

[6] = target: T2, HEK293 cells transfected with human GCGR (Homo sapiens, UniProt P47871); assay: cellular internalization assay; type: cell-based
T2 construct: expressed in transfected cells; host or cells: HEK293
T2 sequence (P47871 26-477): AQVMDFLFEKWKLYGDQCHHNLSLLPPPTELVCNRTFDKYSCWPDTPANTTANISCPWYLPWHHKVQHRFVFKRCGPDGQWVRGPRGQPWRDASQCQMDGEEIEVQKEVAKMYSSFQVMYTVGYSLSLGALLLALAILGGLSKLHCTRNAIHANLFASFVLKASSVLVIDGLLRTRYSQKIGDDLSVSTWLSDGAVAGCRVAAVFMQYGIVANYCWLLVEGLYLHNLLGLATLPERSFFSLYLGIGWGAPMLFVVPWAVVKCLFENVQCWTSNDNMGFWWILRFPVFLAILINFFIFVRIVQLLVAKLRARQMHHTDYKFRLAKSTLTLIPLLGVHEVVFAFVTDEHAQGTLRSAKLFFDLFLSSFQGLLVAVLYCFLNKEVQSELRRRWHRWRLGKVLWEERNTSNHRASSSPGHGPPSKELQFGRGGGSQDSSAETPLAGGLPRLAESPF
Experimental: The assay was also performed at 4 °C (5% CO2) for 60 and 120 min to suppress internalization. The exact number of cells in each well was assessed by cell counter. After incubation, the hot media containing the radioligand was removed and the cells washed with serum-free media two to three times while cells were put on ice.
To measure membrane bound and internalized radioligand, cells were treated first with 0.2 M glycine buffer containing 4 M urea (pH 2.5) (acid wash buffer) and secondly 1 M NaOH (basic wash buffer).
Briefly, first 0.5 mL of acid wash buffer was added to the cells and allowed to incubate for 5 min on ice. The supernatant was then removed and measured in a well counter (membrane bound fraction) (Uppsala Imanet AB, Uppsala, Sweden). The cells were washed one time, before 0.5 mL of basic wash buffer was added and allowed to incubate for 30 min at 37 °C. Then, the detached cells were collected and measured by well counter (internalized fraction). All samples were repeated in triplicates.
The well counter data for each dish and condition was decay corrected to the time at the start of each experiment and expressed as Bq. The internalized and the total cell-associated (internalized + cell membrane bound) fractions were expressed as percentage of the total added radioligand per million of cells (%ID/M cells). […]

[7] = target: T3, human GCGR (HEK293 cells transfected with human GCGR) (Homo sapiens, UniProt P47871); assay: in vitro autoradiography, blocking on sections of frozen pellet of GCGR-transfected cells; type: binding; conditions: n = 3
T3 construct: expressed in transfected cells; host or cells: HEK293
T3 sequence (P47871 26-477): as above
Experimental: as §2, §3

GCG receptor = target: T4, GCG receptor (Rattus norvegicus, UniProt P30082); assay: rat in vivo competition with precursor peptide; design: species or system Sprague Dawley rats; conditions: 1 mg/kg unlabelled precursor
T4 construct: tissue Taconic, Denmark (animals); host or cells: organs of living Sprague Dawley rats (liver, spleen, bone marrow and others)
T4 sequence (P30082 27-485): as the sequence (P30082 27-485) above
Experimental: (§4) A competition study with each respective radiotracer precursor peptide was performed to investigate in vivo selectivity in selected tissues (the blood, heart, lung, liver, pancreas, spleen, kidney, muscle, and bone marrow).
(§5) Animals in each group (n = 4 for each radioligand) were co-injected with 1 mg/kg of either unlabelled DO3A-S01-GCG or -DO3A-S02-GCG peptide to determine the fraction of binding in each tissue which was receptor mediated.
(§6) The time point of euthanasia for each radiotracer was determined based on liver-to-blood ratio obtained from the biodistribution study above, as well as the radionuclide half-life and known radiotracer precursor half-life in blood plasma. Tissue resection and analysis of radioactive uptake in each tissue (expressed as SUV) were performed and analyzed as described above.

[8] = rat in vivo competition with precursor peptide; design: species or system Sprague Dawley rats; conditions: male, Sprague Dawley, total radioactivity, tracer alone, 40 min (S01) or 60 min (S02) p.i., S02 baseline stated for liver and spleen, read-out: baseline binding in the liver
Experimental: as §4, §5, §6

[9] = in vitro autoradiography, pancreas sections; type: binding, Sprague Dawley rat; conditions: rat pancreas, 5–10 nM tracer, n = 1
Experimental: as §1, §2, §3

CC[C@H](C)[C@H](NC(=O)[C@H](Cc1ccccc1)NC(=O)[C@H](CCC(=O)O)NC(=O)[C@@H]1CCCCNC(=O)CC[C@H](NC(=O)[C@H](CC(=O)O)NC(=O)[C@H](CC(C)C)NC(=O)[C@H](CCC(N)=O)NC(=O)[C@H](CCCCN)NC(=O)[C@H](CO)NC(=O)[C@H](Cc2ccc(O)cc2)NC(=O)[C@H](CC(=O)O)NC(=O)[C@H](CO)NC(=O)[C@@H](NC(=O)[C@H](Cc2ccccc2)NC(=O)[C@@H](NC(=O)CNC(=O)[C@H](CCC(N)=O)NC(=O)[C@@H](CO)NC(=O)[C@@H](N)Cc2cscn2)[C@@H](C)O)[C@@H](C)O)C(=O)N[C@@H](CCC(N)=O)C(=O)N[C@@H](CCCNC(=N)N)C(=O)N[C@@H](C)C(=O)N1)C(=O)N[C@@H](CCC(=O)O)C(=O)N[C@@H](Cc1c[nH]c2ccccc12)C(=O)N[C@@H](CC(C)C)C(=O)N[C@@H](CC(C)C)C(=O)N[C@@H](C)C(=O)N[C@H](C(=O)NCC(=O)N1CCC[C@H]1C(=O)N[C@@H](CCC(=O)O)C(=O)N[C@@H](CO)C(=O)NCC(=O)N[C@@H](C)C(=O)N1CCC[C@H]1C(=O)N1CCC[C@H]1C(=O)N1CCC[C@H]1C(=O)N[C@@H](CO)C(=O)N[C@@H](CSCCS(=O)(=O)CCN1CCN(CC(=O)O)CCN(CC(=O)O)CCN(CC(=O)O)CC1)C(N)=O)[C@@H](C)O [[^68Ga]Ga-DO3A-S01-GCG, metal not drawn] (H-[Ala(4-thiazolyl)][dS]QGTFTSDYSKQLDEQRAKEFIEWLLATGPESGAPPPSC(DO3A(CH2CH2SO2CH2CH2))-NH2; lactam 16-20)
effect of GLP-1 in excess on tracer binding to liver sections ([1]; 1 μM GLP-1): did not induce inhibition
inhibition of tracer binding to liver sections by co-incubation with own precursor peptide ([1]; 10 μM precursor): did not increase the degree of inhibition
inhibition of tracer binding to liver sections by co-incubation with GCG ([1]; 5–10 nM tracer, 10 μM GCG, 60 min RT, n = 3 (S01), n = 4 (S02)): > 60%
binding in pancreas sections [2]: Only background binding
exposure [3]: 1570 ng·h/mL
plasma t½ [3]: 15 min
binding in pancreas sections [4]: Only background binding
effect of GLP-1 in excess on tracer binding to liver sections ([5]; 1 μM GLP-1, n = 1): did not induce inhibition
inhibition of tracer binding to liver sections by co-incubation with own precursor peptide ([5]; 10 μM precursor, n = 1): did not increase the degree of inhibition
binding to GCGR-transfected cells at steady state / plateau (total cell-associated) ([6]; 3–7 nM tracer, RT, after 60–120 min (S01) or 60 min (S02), triplicates, 3 batches): approximately 65 % ID/million cells
effect of cooling on internalization ([6]; 4 °C, 60 and 120 min): suppressed almost completely
effect of co-incubation with GCG on binding to sections of GCGR-transfected cell pellet ([7]; 10 μM GCG): completely abolished
effect of co-incubation with own precursor peptide on binding to sections of GCGR-transfected cell pellet ([7]; 10 μM precursor): completely abolished
decrease of binding in the spleen by co-injection of precursor peptide (GCG receptor; 40 min (S01) or 60 min (S02) p.i., n = 4 per group): > 80%
decrease of binding in the liver by co-injection of precursor peptide (GCG receptor; 40 min (S01) or 60 min (S02) p.i., n = 4 per group, 1 mg/kg): > 80% and 84%
effect of co-injection of precursor peptide on kidney uptake (GCG receptor; 40 min p.i.): not affected
decrease of binding in the bone marrow by co-injection of precursor peptide (GCG receptor; 40 min p.i., n = 4 per group): > 80%
SUV [8]: > 2 SUV
binding in pancreas sections [9]: Only background binding
